In publication PMC6472001, “Phenolic Compounds from Humulus lupulus as Natural Antimicrobial Products: New Weapons in the Fight against Methicillin Resistant Staphylococcus aureus, Leishmania mexicana and Trypanosoma brucei Strains” (Molecules, 2019):
Like-named read-outs stand apart in the source and are kept apart here.

How the values were obtained:
S. aureus T28.1 (MRSA) [1] = assay: Broth microdilution MIC; type: cell-based, Staphylococcus aureus
Experimental: (§1) The protocol employed was inspired by Abedini et al. with some modifications. Products were solubilized in DMSO and serially diluted two-fold in MH medium. A bacterial suspension at 10^5 CFU/mL was added to obtain a final volume of 200 µL. Final phenolic product concentrations in wells ranged from 625 to 2.4 µg/mL (exception for lupulone for which dilutions were continued until 0.3 µg/mL). […] Plates were incubated overnight with stirring (60 rpm) at 37 °C.
For the following experiments, the MRSA strain T28.1, isolated from a pathological sample of osteitis, was used. It was previously characterized by DNA biochips, which allowed highlighting some β-lactamases and the SCC-mec genes confirming the methicillin resistance. Moreover, genes for enzymes and proteins involved in the capsule biosynthesis (capH5, capJ5 and capK5) and several intracellular adhesion proteins implicated in biofilm formation (icaA, icaC and icaD) were present.

S. aureus T25.10 (MRSA) = assay: Broth microdilution MIC; type: cell-based, Staphylococcus aureus; details: for MIC: S. aureus T25.10 (MRSA)
Experimental: as §1

S. aureus 08143 (MSSA) = assay: Broth microdilution MIC; type: cell-based, Staphylococcus aureus; details: for MIC: S. aureus 08143 (MSSA)
Experimental: as §1

S. aureus T26A4 (MSSA) = assay: Broth microdilution MIC; type: cell-based, Staphylococcus aureus; details: for MIC: S. aureus T26A4 (MSSA)
Experimental: as §1

[2] = system: Candida albicans ATCC 10231; assay: First screening, agar dilution MIC; type: cell-based
Candida albicans 13203 = assay: First screening, agar dilution MIC; type: cell-based
[3] = system: MG-63 cells (osteosarcoma); assay: cells; type: cell-based, human; details: Homo sapiens, MG-63
Experimental: (§2) Several human cell lines were used for the cytotoxic bioassays: non-cancer lung fibroblasts (WI-38), hepatocellular carcinoma (Hep-G2), osteosarcoma (MG-63) and the mouse monocyte macrophage J774. Cells were seeded into wells of a 96-well microplate in a Gibco™ Dulbecco’s modified eagles medium (DMEM), except for MG-63 which were cultivated in a minimum essential medium (MEM) (ThermoFisher Scientific, Illkirch-Graffenstaden, France). Both media were enriched with 10% FBS (ThermoFisher Scientific, France) and some antibiotics (mixture penicillin/streptomycin 100 UI/mL, Sigma Aldrich). After one or two days at 37 °C (5% of CO2), wells were emptied by suction. Cells were then treated with hops compounds (xanthohumol, desmethylxanthohumol, humulone, lupulone) in DMSO at 0.2% in the culture medium, to obtain a final volume of 100 µL in wells (negative control: 0.2% DMSO). Camptothecin was used as a positive control. After 48 to 72 h exposure, culture medium was replaced by 10% of Alamar blue or 3-(4,5-dimethylthiazol-2-yl)-2,5-diphenyltetrazolium bromide (MTT) in the medium (ThermoFisher Scientific®, Illkirch, France) and plates were incubated the time necessary to the reaction. Results were measured respectively by fluorescence (excitation 530 nm and emission 590 nm) or by optical density at 550 nm. The IC50 of each product was determined using GraphPad Prism (version 5.01).

[4] = system: J774 cells (monocyte macrophage); assay: Cytotoxicity / antiproliferative effect; type: cell-based, mouse
Experimental: as §2

[5] = system: WI-38 cells (non-cancer lung fibroblasts); assay: Cytotoxicity / antiproliferative effect; type: cell-based, human
Experimental: as §2

[6] = system: Hep-G2 cells (hepatocellular carcinoma); assay: Cytotoxicity / antiproliferative effect; type: cell-based, human; details: Homo sapiens
Experimental: as §2

S. aureus T28.1 (MRSA) [7] = assay: Synergies by checkerboard method; type: cell-based, Staphylococcus aureus
Experimental: Checkerboard method was used to assess the potential co-action of xanthohumol, desmethylxanthohumol and lupulone between them or with some antibiotics. Antibiotics were previously selected on the basis of a first screening using E-tests (BioMérieux®, France). […] Each test was performed on a 96-well microplate using an 8-by-8 well configuration. […] Wells were filled with 100 µL of MH medium, 10 µL of each compound (DMSO for products and water for antibiotics) and 80 µL of a 10^5 CFU/mL bacterial suspension with appropriate solvent controls. […] The MIC of each product alone was checked at each test. Microplates were incubated overnight at 60 rpm and 37 °C.
After visual analysis, the combination with the highest activity was determined by the calculation of the fractional inhibitory concentration (FIC) index, interpreted as synergistic (FIC < 0.5), additive (0.5 ≤ FIC ≤ 1), indifferent (1 < FIC ≤ 4) or antagonist (FIC > 4).
FIC index=MIC A with B/MIC A alone+ MIC B with A/MIC B alone

[8] = system: Leishmania mexicana mexicana (Lmm); assay: Antiparasitic activity, broth microdilution; type: cell-based
Experimental: (§3) Tbb were cultivated in HMI9 medium containing 10% heat-inactivated foetal bovine serum (FBS) (Sigma-Aldrich), […] L-cysteine and […] beta-mercaptoethanol at 37 °C (CO2 5%). Lmm (MHOM/BZ/84/BEL46) were cultivated in SDM-79 medium (Gibco) supplemented with 15% heat-inactivated FBS (Sigma-Aldrich) and 5 mg/L hemin at 28 °C (CO2 5%). Antiparasitic bioassays were performed as described by Bero et al.. Suramin (SUR) and pentamidine (PEN) were used as positive controls respectively. The hops compounds (xanthohumol, desmethylxanthohumol, humulone, lupulone) concentration that inhibits 50% of the cell viability (IC50) was determined using GraphPad Prism, version 5.01 (GraphPad Software, San Diego, CA, USA).

[9] = system: Trypanosoma brucei brucei (Tbb); assay: Antiparasitic activity, broth microdilution; type: cell-based
Experimental: as §3

[10] = Staphylococcus aureus, S. aureus T28.1 (MRSA), read-out: MIC
[11] = Staphylococcus aureus, S. aureus T28.1 (MRSA), value in parentheses, read-out: MIC
[12] = Staphylococcus aureus, read-out: MIC
[13] = Staphylococcus aureus, value in parentheses, read-out: MIC
[14] = value in parentheses, read-out: IC50 (converted)
[15] = value in parentheses, read-out: MIC

Compound: CC(C)=CCC1=C(O)C(O)(CC=C(C)C)C(=O)C(C(=O)C(C)C)=C1O (stereo in doubt) [Cohumulone, cohumulone]
- MIC (S. aureus T28.1 (MRSA) [1]; [10]): 156 µg/mL
- MIC (S. aureus T28.1 (MRSA) [1]; [11]): 448 µM
- MIC (S. aureus T25.10 (MRSA); [12]): 313 µg/mL
- MIC (S. aureus T25.10 (MRSA); [13]): 899 µM
- MIC (S. aureus 08143 (MSSA); [12]): 313 µg/mL
- MIC (S. aureus 08143 (MSSA); [13]): 899 µM
- MIC (S. aureus T26A4 (MSSA); [12]): 313 µg/mL
- MIC (S. aureus T26A4 (MSSA); [13]): 899 µM

Compound: C[C@@H]1[C@H](O)[C@@H](C)/C=C/C=C/C=C/C=C/C=C/C=C/C=C/[C@H](O[C@@H]2O[C@H](C)[C@@H](O)[C@H](N)[C@@H]2O)C[C@@H]2O[C@](O)(C[C@@H](O)C[C@@H](O)[C@H](O)CC[C@@H](O)C[C@@H](O)CC(=O)O[C@H]1C)C[C@H](O)[C@H]2C(=O)O [AMB, Amphotericin B]
- Susceptibility to AMB [2]: S (Amphotericin B (AMB) S ≤ 1)
- Susceptibility to AMB (Candida albicans 13203): S (Amphotericin B (AMB) S ≤ 1)

Compound: CC[C@@]1(O)C(=O)OCc2c1cc1n(c2=O)Cc2cc3ccccc3nc2-1 [CAMP, camptothecin]
- IC50 ([3]; read-out: IC50 ± SD): 4.4 ± 1.5 µg/mL
- IC50 [3, 14]: 12.6 µM
- IC50 ([4]; Mus musculus, read-out: IC50 ± SD): 0.01 µg/mL
- IC50 ([4]; Mus musculus, value in parentheses, read-out: IC50 (converted)): 0.03 µM
- IC50 ([5]; Homo sapiens, read-out: IC50 ± SD): 0.06 µg/mL
- IC50 ([5]; Homo sapiens, value in parentheses, read-out: IC50 (converted)): 0.17 µM
- IC50 ([6]; HepG2, read-out: IC50 ± SD): 0.4 ± 0.2 µg/mL
- IC50 ([6]; HepG2, value in parentheses, read-out: IC50 (converted)): 1.15 µM

Compound: CC(C)=CCC1=C(O)C(CC=C(C)C)(CC=C(C)C)C(=O)C(C(=O)C(C)C)=C1O [Colupulone, colupulone]
- MIC (S. aureus T28.1 (MRSA) [1]; [10]): 39 µg/mL
- MIC (S. aureus T28.1 (MRSA) [1]; [11]): 97.5 µM
- MIC (S. aureus T25.10 (MRSA); [12]): 78 µg/mL
- MIC (S. aureus T25.10 (MRSA); [13]): 195 µM
- MIC (S. aureus 08143 (MSSA); [12]): 78 µg/mL
- MIC (S. aureus 08143 (MSSA); [13]): 195 µM
- MIC (S. aureus T26A4 (MSSA); [12]): 39 µg/mL
- MIC (S. aureus T26A4 (MSSA); [13]): 97.5 µM

Compound: OC(Cn1cncn1)(Cn1cncn1)c1ccc(F)cc1F [FLC, Fluconazole]
- Susceptibility to FLC [2]: S (Fluconazole (FLC) S ≤ 2)
- Susceptibility to FLC (Candida albicans 13203): R (R > 4)

Compound: COc1cc(O)c(CC=C(C)C)c2c1C(=O)CC(c1ccc(O)cc1)O2 (stereo not shown) [Isoxanthohumol, isoxanthohumol]
- MIC (S. aureus T28.1 (MRSA) [1]; Staphylococcus aureus, strain MRSA T28.1, read-out: MIC): 39 µg/mL

Compound: Cc1onc(-c2ccccc2)c1C(=O)N[C@@H]1C(=O)N2[C@@H]1SC(C)(C)[C@@H]2C(=O)O [OXA, oxacillin]
- Susceptibility to OXA (S. aureus T28.1 (MRSA) [1]; S. aureus T28.1): R (R ≥ 4 µg/mL)
- Susceptibility to OXA (S. aureus T25.10 (MRSA); S. aureus T25.10): R (R ≥ 4 µg/mL)
- Susceptibility to OXA (S. aureus 08143 (MSSA); S. aureus 08143): S (S ≤ 2 µg/mL)
- Susceptibility to OXA (S. aureus T26A4 (MSSA); S. aureus T26A4): S (S ≤ 2 µg/mL)
- MIC for oxacillin in combination (S. aureus T28.1 (MRSA) [7]; in the presence of lupulone): < 2 µg/mL
- MIC for oxacillin in combination (S. aureus T28.1 (MRSA) [7]; in the presence of xanthohumol): < 2 µg/mL

Compound: N=C(N)c1ccc(OCCCCCOc2ccc(C(=N)N)cc2)cc1 [PEN, pentamidine]
- IC50 ([8]; Leishmania mexicana, read-out: IC50 (converted)): 0.07 µg/mL
- IC50 ([8]; Leishmania mexicana, value in parentheses, read-out: IC50 (converted)): 0.21 µM

Compound: Cc1ccc(C(=O)Nc2ccc(S(=O)(=O)O)c3cc(S(=O)(=O)O)cc(S(=O)(=O)O)c23)cc1NC(=O)c1cccc(NC(=O)Nc2cccc(C(=O)Nc3cc(C(=O)Nc4ccc(S(=O)(=O)O)c5cc(S(=O)(=O)O)cc(S(=O)(=O)O)c45)ccc3C)c2)c1 [SUR, suramin]
- IC50 ([9]; Trypanosoma brucei, read-out: IC50 (converted)): 0.05 µg/mL
- IC50 ([9]; Trypanosoma brucei, value in parentheses, read-out: IC50 (converted)): 0.038 µM

Compound: C[C@@H](c1ncncc1F)[C@](O)(Cn1cncn1)c1ccc(F)cc1F [VRC, Voriconazole]
- Susceptibility to VRC [2]: S (Voriconazole (VRC) S ≤ 0.12)
- Susceptibility to VRC (Candida albicans 13203): R (R > 0.12)

Compound: CO[C@H]1/C=C/O[C@@]2(C)Oc3c(C)c(O)c4c(O)c(c(/C=N/N5CCN(C)CC5)c(O)c4c3C2=O)NC(=O)/C(C)=C\C=C\[C@H](C)[C@H](O)[C@@H](C)[C@@H](O)[C@@H](C)[C@H](OC(C)=O)[C@@H]1C [rifampicin]
- times more active when combined (S. aureus T28.1 (MRSA) [7]; rifampicin combined with xanthohumol): 8 times

Compound: humulone
- MIC (S. aureus T28.1 (MRSA) [1]; S. aureus T28.1 (MRSA)): 78 µg/mL
- MIC (S. aureus T28.1 (MRSA) [1]; S. aureus T28.1 (MRSA), value in parentheses, read-out: MIC): 215.5 µM
- MIC (S. aureus T25.10 (MRSA)): 156 µg/mL
- MIC (S. aureus T25.10 (MRSA); [15]): 430.9 µM
- MIC (S. aureus 08143 (MSSA)): 156 µg/mL
- MIC (S. aureus 08143 (MSSA); [15]): 430.9 µM
- MIC (S. aureus T26A4 (MSSA)): 156 µg/mL
- MIC (S. aureus T26A4 (MSSA); [15]): 430.9 µM
- IC50 ± SD [4]: 11.5 ± 0.3 µg/mL
- IC50 [4, 14]: 31.7 µM
- IC50 ± SD [5]: 10.5 ± 2.3 µg/mL
- IC50 [5, 14]: 29 µM
- IC50 [8]: 28.8 ± 1.5 µg/mL
- IC50 [8, 14]: 77.9 µM
- IC50 [9]: 10.9 ± 0.8 µg/mL
- IC50 [9, 14]: 30.1 µM
